# Experimental data published in patent publication US20240033228A1, “MESOPOROUS NANOPARTICLES SYSTEM TO INCREASE THE BIOFILM ERADICATION ACTIVITY BY MEANS OF THE CARRYING AND THE ADMINISTRATION OF AT LEAST ONE ACTIVE INGREDIENT AND RELATED PRODUCTION METHOD” (Brenta S.r.l., priority 2020, published 2024).
# Experiments:
# [1] = test system: S. aureus biofilm; assay: Biofilm eradication test (MBEC assay with Calgary Biofilm Device); format: cell-based, Staphylococcus aureus
# Protocol: The eradication tests were performed by adding free or loaded and/or supported API after the maturation of a biofilm for 24 hours.
# VCN was tested against S. aureus and NTF against T. pneumoniae.
# The log reduction was calculated according to the following formula:
# Log reduction (LR)=Log10(mean number of CPUs without reatment)/(mean number of CFUs after treatment), where CFUs are Colony Formation Units.
# Correspondingly, the eradication percentage P was calculated according to the following formula: […]
# Testing was performed by MBEC assay with Calgary Biofilm Device.
# [2] = water; cited from earlier work
# [3] = footnote a not given; cited from earlier work
# [4] = test system: K. pneumoniae; assay: Plate antimicrobial tests; format: cell-based; conditions: plate test; strain not given
# Protocol: (§1) Plate antimicrobial tests were conducted to verify the inactivity of the nanoparticles and to confirm that the antibacterial activity is linked to being loaded with at least one API. The negative control corresponds to S. aureus and K. pneumoniae without API.
# [5] = test system: S. aureus; assay: Plate antimicrobial tests; format: cell-based; conditions: plate test; strain not given
# Protocol: as §1
# [6] = test system: K. pneumoniae biofilm; assay: Biofilm eradication test (MBEC assay with Calgary Biofilm Device); format: cell-based, Klebsiella pneumoniae
# Protocol: The eradication tests were performed by adding free or loaded and/or supported API after the maturation of a biofilm for 24 hours. VCN was tested against S. aureus and NTF against […]. […] The log reduction was calculated according to the following formula: Log reduction (LR)=Log10(mean number of CPUs without […] number of CFUs after treatment), where CFUs are Colony Formation Units. Correspondingly, the eradication percentage P was calculated according to the following formula: […] Testing was performed by MBEC assay with Calgary Biofilm Device.
compound,measurement,setting,value
"CN[C@H](CC(C)C)C(=O)N[C@H]1C(=O)N[C@@H](CC(N)=O)C(=O)N[C@H]2C(=O)N[C@H]3C(=O)N[C@H](C(=O)N[C@H](C(=O)O)c4cc(O)cc(O)c4-c4cc3ccc4O)[C@H](O)c3ccc(c(Cl)c3)Oc3cc2cc(c3O[C@@H]2O[C@H](CO)[C@@H](O)[C@H](O)[C@H]2O[C@H]2C[C@](C)(N)[C@H](O)[C@H](C)O2)Oc2ccc(cc2Cl)[C@H]1O [VCN, vancomycin]",Log Reduction Log (CFU/ml) ± SD,"[1]; S. aureus preformed biofilm (24 hours), highest concentration tested",2.0 ± 0.4 Log (CFU/ml)
same,P (%) eradication percentage,"[1]; S. aureus preformed biofilm, P=[1−10^−LR]*100",99.0%
same,Solubility H2O,[2],>50000 µg/mL
COc1ccc2c(c1)c(CC(=O)O)c(C)n2C(=O)c1ccc(Cl)cc1 [INDM],Solubility H2O,[2],80 µg/mL
same,LogP,[3],4.27
"CC(=O)N[C@@H](CS)C(=O)O [NAC, N-acetyl-L-cysteine]",concentration below which no antibacterial activity is exhibited,[4],1 to 2 mg/mL
same,concentration below which no antibacterial activity is exhibited,[5],1 to 2 mg/mL
same,LogP,[3],−0.03
"O=C1CN(/N=C/c2ccc([N+](=O)[O-])o2)C(=O)N1 [NTF, Nitrofurantoin]",Log Reduction Log (CFU/ml) ± SD,"[6]; K. pneumoniae preformed biofilm (24 hours), highest concentration tested",2.5 ± 1.0 Log (CFU/ml)
same,P (%) eradication percentage,"[6]; K. pneumoniae preformed biofilm, P=[1−10^−LR]*100",99.7%
same,Solubility H2O,[2],80 µg/mL
